The values below come from US5698538A, “Boronic acid and ester inhibitors of thrombin” (The DuPont Merck Pharmaceutical Company, priority 1996, dated 1997).

Structures are written as SMILES. Where two headings read alike, the source gives them in different places.

Common to all, as to format: biochemical
The target of test [1] is T1, human factor VIIa (Homo sapiens, UniProt P08709).
T1 construct: Factor VIIa in the extrinsic pathway; purchased BiosPacific, Emeryville, Calif
T1 sequence (P08709 213-466 limits assumed): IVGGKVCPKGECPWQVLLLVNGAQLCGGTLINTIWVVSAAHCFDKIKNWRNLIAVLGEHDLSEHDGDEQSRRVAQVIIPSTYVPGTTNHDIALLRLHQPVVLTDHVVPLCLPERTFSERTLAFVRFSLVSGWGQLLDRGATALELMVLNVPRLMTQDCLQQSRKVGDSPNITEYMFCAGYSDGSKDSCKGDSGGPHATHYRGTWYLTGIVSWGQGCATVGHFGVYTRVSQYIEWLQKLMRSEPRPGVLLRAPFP
T1 sequence (P08709 61-212 partner limits assumed): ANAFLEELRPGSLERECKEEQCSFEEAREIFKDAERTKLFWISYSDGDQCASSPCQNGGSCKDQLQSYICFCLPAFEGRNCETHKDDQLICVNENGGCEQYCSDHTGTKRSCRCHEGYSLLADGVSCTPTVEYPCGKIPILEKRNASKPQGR
The test can be described thus: Inhibition of human factor VIIa (chromogenic substrate S2288), inhibitory constant Ki. As for the experimental part:
(§1) The effectiveness of compounds of the present invention as inhibitors of blood coagulation proteases was determined using purified human proteases and synthetic substrates following procedures similar to those described in Kettner et al. (1990).
(§2) For these assays, the rate of enzymatic (thrombin, Factor Xa, and Factor VIIa) hydrolysis of chromogenic substrates (S2238 (H-D-Phe-Pip-Arg-pNA), S2222, and S2288, respectively; Kabi Pharmacia, Franklin, Ohio.) was measured both in the absence and presence of compounds of the present invention. […] A decrease in the rate of absorbance change at 405 nm in the presence of inhibitor is indicative of enzyme inhibition. The results of this assay are expressed as inhibitory constant, Ki.
(§3) Thrombin and Xa determinations were made in 0.10M sodium phosphate buffer, pH 7.5, containing 0.20M NaCl, and 0.5% PEG 8000. VIIa determinations were made in 0.05M tris buffer, pH 7.6, containing 0.10M NaCl, 4 mM CaCl2, and 0.1% bovine serum albumin. The Michaelis constant, Km, for substrate hydrolysis was determined at 5° C. using the method of Lineweaver and Burk.
(§4) Values of Ki were determined by allowing 0.2-0.5 nM human thrombin or human factor Xa (Enzyme Research Laboratories, South Bend, Ind.), or 50 nM human factor VIIa (BiosPacific, Emeryville, Calif.) react with the substrate (0.20 mM-1 mM) in the presence of inhibitor. Reactions were allowed to go for 30 minutes and the velocities (rate of absorbance change vs time) were measured in the time frame of 25-30 minutes. The following relationship was used to calculate Ki values. [formula] where: vo is the velocity of the control in the absence of inhibitor;
(§5) vs is the velocity in the presence of inhibitor;
(§6) I is the concentration of inhibitor;
(§7) Ki is the dissociation constant of the enzyme: inhibitor complex;
(§8) S is the concentration of substrate;
(§9) Km is the Michaelis constant.

Test [2] has as its target T2, human factor Xa (Homo sapiens, UniProt P00742).
T2 construct: purchased Enzyme Research Laboratories, South Bend, Ind
The test can be described thus: Inhibition of human factor Xa (chromogenic substrate S2222), inhibitory constant Ki. Conditions: S2222, pH 7.5, 30 minutes, read-out: Ki values for inhibition of Serine Proteases: Factor Xa. As for the experimental part: as §1, §2, §3, §4, §5, §6, §7, §8, §9

Test [3] addresses T3, human thrombin (Homo sapiens, UniProt P00734).
T3 construct: purchased Enzyme Research Laboratories, South Bend, Ind
As to the kind of experiment: Inhibition of human thrombin (chromogenic substrate S2238), inhibitory constant Ki. As to conditions: 0.2-0.5 nM human thrombin, S2238, pH 7.5, 30 minutes; read-out: Ki values for inhibition of Serine Proteases: Thrombin. As for the experimental part: as §1, §2, §3, §4, §5, §6, §7, §8, §9

[4] abbreviates: 50 nM human factor VIIa, S2288, pH 7.6, 4 mM CaCl2, 30 minutes, read-out: Ki values for inhibition of Serine Proteases: Factor VIIa.

For orientation: Ki means the equilibrium dissociation constant of an inhibitor or competing ligand from its target.

T2 sequence (P00742 235-488 limits assumed): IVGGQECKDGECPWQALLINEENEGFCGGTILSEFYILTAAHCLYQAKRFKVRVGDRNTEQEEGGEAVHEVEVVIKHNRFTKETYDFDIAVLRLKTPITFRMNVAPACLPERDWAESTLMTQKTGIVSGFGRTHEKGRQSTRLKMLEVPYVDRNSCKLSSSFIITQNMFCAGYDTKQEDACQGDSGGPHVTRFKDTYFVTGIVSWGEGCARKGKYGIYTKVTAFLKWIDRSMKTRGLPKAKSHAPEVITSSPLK
T2 sequence (P00742 41-179 partner limits assumed): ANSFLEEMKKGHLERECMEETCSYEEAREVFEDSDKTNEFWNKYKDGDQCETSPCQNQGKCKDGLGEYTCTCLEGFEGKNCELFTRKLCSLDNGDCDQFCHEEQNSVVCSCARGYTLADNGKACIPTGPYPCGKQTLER

Consider `CC1(C)C2CC3OB([C@H](CCCCN)NC(=O)Cn4nc(Cc5ccccc5)nc4CO)OC3(C)C1C2` (single isomer, unassigned) [Example 2439], for which the Ki in test [1] (setting [4]) was 0.5 to 50 µM; in test [2], 0.5 to 50 µM; in test [3], < 0.5 µM.
`CC1(C)C2CC3OB([C@H](CCCCN)NC(=O)Cn4nc(Cc5ccccc5)nc4COCc4ccccc4)OC3(C)C1C2` (single isomer, unassigned) [Example 2440]: the results for the Ki in test [1] (setting [4]), in test [2] and in test [3] were 0.5 to 50 µM, 0.5 to 50 µM and < 0.5 µM, respectively.
Turning to `CC1(C)C2CC3OB([C@H](CCCNC(=N)N)NC(=O)Cn4nc(Cc5ccccc5)nc4-c4ccccc4)OC3(C)C1C2` (single isomer, unassigned) [Example 2490], the inhibition constant Ki was < 0.5 µM in test [1] (setting [4]), 0.5 to 50 µM in test [2] and < 0.5 µM in test [3].
`CC1(C)C2CC3OB([C@H](CCCNC(=N)N)NC(=O)Cn4nc(Cc5ccccc5)nc4-c4cccc([N+](=O)[O-])c4)OC3(C)C1C2` (single isomer, unassigned) [Example 2491]: the Ki was 0.5 to 50 µM in test [1] (setting [4]), < 0.5 µM in test [2] and < 0.5 µM in test [3].
As to `CC1(C)C2CC3OB([C@H](CCCCN)NC(=O)Cn4nc(CCc5ccccc5)nc4CO)OC3(C)C1C2` (single isomer, unassigned) [Example 2780], the inhibitory constant (Ki) in test [1] (setting [4]) is < 0.5 µM; in test [2], 0.5 to 50 µM; in test [3], < 0.5 µM.
Turning to `CC1(C)C2CC3OB([C@H](CCCCN)NC(=O)Cn4nc(CCc5ccccc5)nc4COCc4ccccc4)OC3(C)C1C2` (single isomer, unassigned) [Example 2781], the Ki in test [1] (setting [4]) was 0.5 to 50 µM; in test [2], 0.5 to 50 µM; in test [3] it was < 0.5 µM.
Turning to `CC1(C)C2CC3OB([C@H](CCCCN)NC(=O)c4cnc(-c5ccccc5)nc4-c4ccccc4)OC3(C)C1C2` (single isomer, unassigned) [Example 3465], the Ki is 0.5 to 50 µM in test [1] (setting [4]), 0.5 to 50 µM in test [2] and < 0.5 µM in test [3].
As to `CC1(C)[C@@H]2C[C@H]3OB([C@H](CCCNC(=N)N)NC(=O)c4cccc(-c5ccccc5)c4)O[C@@]3(C)[C@H]1C2` [Example 2], the inhibition constant (Ki) in test [1] (setting [4]), in test [2] and in test [3] was < 0.5 µM in each case.
On to `CC1(C)[C@@H]2C[C@H]3OB([C@H](CCCSC(=N)N)NC(=O)c4cccc(-c5ccccc5)c4)O[C@@]3(C)[C@H]1C2` [Example 35], for which the results for the Ki in test [1] (setting [4]), in test [2] and in test [3] were 0.5 to 50 µM, < 0.5 µM and < 0.5 µM, respectively.
As to `CC1(C)[C@@H]2C[C@H]3OB([C@H](CCCCN)NC(=O)c4cccc(-c5ccccc5)c4)O[C@@]3(C)[C@H]1C2` [Example 68], the Ki is < 0.5 µM in test [1] (setting [4]), 0.5 to 50 µM in test [2] and < 50 µM in test [3].
The like results for `CC1(C)[C@@H]2C[C@H]3OB([C@H](CCCNC(=N)N)NC(=O)c4ccc(-c5ccccc5)cc4F)O[C@@]3(C)[C@H]1C2` [Example 199] were, in that order, < 0.5 µM, < 0.5 µM and < 0.5 µM.
The like results for `CC1(C)[C@@H]2C[C@H]3OB([C@H](CCCNC(=N)N)NC(=O)c4ccc(-c5ccccc5)cc4[N+](=O)[O-])O[C@@]3(C)[C@H]1C2` [Example 203] were, in that order, < 0.5 µM, < 0.5 µM and < 0.5 µM.
As for `Cc1cc(-c2ccccc2S(=O)(=O)NC(C)(C)C)ccc1C(=O)N[C@@H](CCCNC(=N)N)B(O)O` [Example 224], the Ki in test [1] (setting [4]), in test [2] and in test [3] was < 0.5 µM throughout.
In the case of `Cc1cc(-c2ccccc2S(N)(=O)=O)ccc1C(=O)N[C@@H](CCCNC(=N)N)B1O[C@@H]2C[C@@H]3C[C@@H](C3(C)C)[C@]2(C)O1` [Example 227], the Ki was 0.5 to 50 µM in test [1] (setting [4]), < 0.5 µM in test [2] and < 0.5 µM in test [3].
Consider `COC(=O)NS(=O)(=O)c1ccccc1-c1ccc(C(=O)N[C@@H](CCCNC(=N)N)B2O[C@@H]3C[C@@H]4C[C@@H](C4(C)C)[C@]3(C)O2)c(C)c1` [Example 231], for which the Ki in test [1] (setting [4]) is 0.5 to 50 µM; in test [2], < 0.5 µM; in test [3], < 0.5 µM.
In the case of `CC(C)(C)NS(=O)(=O)c1ccccc1-c1ccc(C(=O)N[C@@H](CCCNC(=N)N)B2O[C@@H]3C[C@@H]4C[C@@H](C4(C)C)[C@]3(C)O2)cc1` [Example 261], the Ki in test [1] (setting [4]), in test [2] and in test [3] was < 0.5 µM in each case.
For `CC(C)(C)NS(=O)(=O)c1ccccc1-c1ccc(C(=O)N[C@@H](CCCNC(=N)N)B2O[C@@H]3C[C@@H]4C[C@@H](C4(C)C)[C@]3(C)O2)c(Cl)c1` [Example 262], the Ki in test [1] (setting [4]), in test [2] and in test [3] was < 0.5 µM in each case.
For `CC(C)(C)NS(=O)(=O)c1ccccc1-c1ccc(C(=O)N[C@@H](CCCNC(=N)N)B(O)O)cc1` [Example 263], the Ki in test [1] (setting [4]), in test [2] and in test [3] was < 0.5 µM throughout.
`Cc1cc(-c2cccc(NC(=O)OC(C)(C)C)c2)ccc1C(=O)N[C@@H](CCCNC(=N)N)B1O[C@@H]2C[C@@H]3C[C@@H](C3(C)C)[C@]2(C)O1` [Example 283]: the inhibition constant (Ki) in test [1] (setting [4]) is 0.5 to 50 µM; in test [2], < 0.5 µM; in test [3], < 0.5 µM.
Turning to `CCN(CC)S(=O)(=O)c1ccccc1-c1ccc(C(=O)N[C@@H](CCCNC(=N)N)B2O[C@@H]3C[C@@H]4C[C@@H](C4(C)C)[C@]3(C)O2)c(C)c1` [Example 286], the Ki in test [1] (setting [4]), in test [2] and in test [3] was < 0.5 µM throughout.
In the case of `CC1(C)[C@@H]2C[C@H]3OB([C@H](CCCNC(=N)N)NC(=O)c4ccc(-c5ccccc5)c([N+](=O)[O-])c4)O[C@@]3(C)[C@H]1C2` [Example 298], the Ki in test [1] (setting [4]), in test [2] and in test [3] was < 0.5 µM throughout.
Regarding `CC1(C)[C@@H]2C[C@H]3OB([C@H](CCCNC(=N)N)NC(=O)c4ccc(-c5ccccc5)c(N)c4)O[C@@]3(C)[C@H]1C2` [Example 299], the Ki in test [1] (setting [4]), in test [2] and in test [3] was < 0.5 µM each time.
On to `CC(C)(C)NS(=O)(=O)c1ccccc1-c1ccc(C(=O)N[C@@H](CCCNC=N)B2O[C@@H]3C[C@@H]4C[C@@H](C4(C)C)[C@]3(C)O2)cc1` [Example 302], for which the inhibition constant (Ki) in test [1] (setting [4]) was 0.5 to 50 µM; in test [2], < 0.5 µM; in test [3], < 0.5 µM.
Turning to `CC(C)(C)OC(=O)Nc1cc(-c2ccccc2)ccc1C(=O)N[C@@H](CCCNC(=N)N)B1O[C@@H]2C[C@@H]3C[C@@H](C3(C)C)[C@]2(C)O1` [Example 303], the results for the inhibitory constant (Ki) in test [1] (setting [4]), in test [2] and in test [3] were 0.5 to 50 µM, 0.5 to 50 µM and < 0.5 µM, respectively.
Take `COCCC[C@H](NC(=O)c1ccc(-c2ccccc2S(N)(=O)=O)cc1C)B1O[C@@H]2C[C@@H]3C[C@@H](C3(C)C)[C@]2(C)O1` [Example 305]: the Ki in test [1] (setting [4]) was 0.5 to 50 µM; in test [2] it was 0.5 to 50 µM; in test [3] it was < 50 µM.
Regarding `CC1(C)[C@@H]2C[C@H]3OB([C@H](CCCCN)NC(=O)c4ccc(-c5ccccc5)nc4)O[C@@]3(C)[C@H]1C2` [Example 468], the results for the Ki in test [1] (setting [4]), in test [2] and in test [3] were 0.5 to 50 µM, 0.5 to 50 µM and < 50 µM, respectively.
With `NCCCC[C@H](NC(=O)c1ccc(-c2ccccc2)nc1)B(O)O` [Example 474], the Ki in test [1] (setting [4]) is 0.5 to 50 µM; in test [2] it was 0.5 to 50 µM; in test [3], < 50 µM.
Turning to `Cc1nc(Cc2ccccc2)n(CC(=O)N[C@@H](CCCCN)B2O[C@@H]3C[C@@H]4C[C@@H](C4(C)C)[C@]3(C)O2)n1` [Example 888], the figures for the Ki in test [1], in test [2] and in test [3] were 0.5 to 50 µM, 0.5 to 50 µM and < 0.5 µM, respectively.
`CCCc1nc(Cc2ccccc2)n(CC(=O)N[C@@H](CCCCN)B2O[C@@H]3C[C@@H]4C[C@@H](C4(C)C)[C@]3(C)O2)n1` [Example 890]: the Ki in test [1] (setting [4]) was 0.5 to 50 µM; in test [2] it was 0.5 to 50 µM; in test [3], < 0.5 µM.
